Experimental data as given in ChEMBL document CHEMBL3853315, “Targeting the Translesion Synthesis Pathway for the Development of Anti-Cancer Chemotherapeutics” (J Med Chem, 2016).

Tests used:
[1] = Growth inhibition of human MDA-MB-231 cells after 72 hrs by MTT assay; assay type: functional; details: MDA-MB-231, 72 h
[2] = molecular target: Ubiquitin carboxyl-terminal hydrolase 1/WD repeat-containing protein 48 (Homo sapiens, UniProt O94782); assay: Inhibition of human USP1/UAF1 complex using Ub-Rho as substrate preincubated for 30 mins followed by substrate addition by fluorescence-based HTS assay; assay type: protein-complex assay
[3] = molecular target: T1, Ubiquitin carboxyl-terminal hydrolase 1/WD repeat-containing protein 48 (Homo sapiens, UniProt O94782+Q8TAF3); assay: Inhibition of USP1/UAF1 complex in human H596 cells assessed as potentiation of cisplatin-induced cell killing by measuring cisplatin GI50 at 1:4 cisplatin to compound ratio pretreated for 48 hrs followed by addition of fresh growth medium measured after 5 to 10 days by colony forming assay (reference value: 486 nM); assay type: cell-based
[4] = molecular target: T1, Ubiquitin carboxyl-terminal hydrolase 1/WD repeat-containing protein 48; assay: Inhibition of USP1/UAF1 complex in HEK293T cells assessed as decrease in ability of DNA polymerase eta to bypass UV-induced DNA lesions after 24 hrs by strand specific PCR-based competitive replication and adduct bypass assay; assay type: cell-based; details: HEK-293T, concentration not given here
DNA polymerase eta = molecular target: T2, DNA polymerase eta (Homo sapiens, UniProt Q9Y253); assay: Inhibition of human recombinant DNA polymerase eta expressed in Baculovirus expression system using TAMRA/BHQ-2-labeled primer/template measured at 2 to 6 mins by reporter-strand displacement assay
T2 sequence (Q9Y253 whole entry): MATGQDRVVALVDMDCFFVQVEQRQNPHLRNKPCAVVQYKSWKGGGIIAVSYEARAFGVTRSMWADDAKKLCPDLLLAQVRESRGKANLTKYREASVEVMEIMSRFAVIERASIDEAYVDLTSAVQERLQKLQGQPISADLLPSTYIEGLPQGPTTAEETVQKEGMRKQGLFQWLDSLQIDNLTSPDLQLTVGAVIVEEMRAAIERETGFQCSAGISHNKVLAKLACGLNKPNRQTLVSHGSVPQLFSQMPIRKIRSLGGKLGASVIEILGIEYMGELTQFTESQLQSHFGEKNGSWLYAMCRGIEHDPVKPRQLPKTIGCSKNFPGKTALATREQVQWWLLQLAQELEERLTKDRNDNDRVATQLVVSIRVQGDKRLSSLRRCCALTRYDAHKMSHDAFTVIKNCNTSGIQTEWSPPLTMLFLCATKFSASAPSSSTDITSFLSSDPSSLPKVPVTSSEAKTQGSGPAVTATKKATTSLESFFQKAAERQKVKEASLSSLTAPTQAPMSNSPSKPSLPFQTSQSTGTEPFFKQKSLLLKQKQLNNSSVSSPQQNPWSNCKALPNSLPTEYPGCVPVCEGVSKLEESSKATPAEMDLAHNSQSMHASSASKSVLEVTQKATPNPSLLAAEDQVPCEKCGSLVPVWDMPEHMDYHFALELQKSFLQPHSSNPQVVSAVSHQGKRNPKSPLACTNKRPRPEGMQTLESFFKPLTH

DNA polymerase iota = molecular target: T3, DNA polymerase iota (Homo sapiens, UniProt Q9UNA4); assay: Inhibition of human recombinant DNA polymerase iota expressed in Baculovirus expression system using TAMRA/BHQ-2-labeled primer/template measured at 2 to 6 mins by reporter-strand displacement assay
T3 sequence (Q9UNA4 whole entry): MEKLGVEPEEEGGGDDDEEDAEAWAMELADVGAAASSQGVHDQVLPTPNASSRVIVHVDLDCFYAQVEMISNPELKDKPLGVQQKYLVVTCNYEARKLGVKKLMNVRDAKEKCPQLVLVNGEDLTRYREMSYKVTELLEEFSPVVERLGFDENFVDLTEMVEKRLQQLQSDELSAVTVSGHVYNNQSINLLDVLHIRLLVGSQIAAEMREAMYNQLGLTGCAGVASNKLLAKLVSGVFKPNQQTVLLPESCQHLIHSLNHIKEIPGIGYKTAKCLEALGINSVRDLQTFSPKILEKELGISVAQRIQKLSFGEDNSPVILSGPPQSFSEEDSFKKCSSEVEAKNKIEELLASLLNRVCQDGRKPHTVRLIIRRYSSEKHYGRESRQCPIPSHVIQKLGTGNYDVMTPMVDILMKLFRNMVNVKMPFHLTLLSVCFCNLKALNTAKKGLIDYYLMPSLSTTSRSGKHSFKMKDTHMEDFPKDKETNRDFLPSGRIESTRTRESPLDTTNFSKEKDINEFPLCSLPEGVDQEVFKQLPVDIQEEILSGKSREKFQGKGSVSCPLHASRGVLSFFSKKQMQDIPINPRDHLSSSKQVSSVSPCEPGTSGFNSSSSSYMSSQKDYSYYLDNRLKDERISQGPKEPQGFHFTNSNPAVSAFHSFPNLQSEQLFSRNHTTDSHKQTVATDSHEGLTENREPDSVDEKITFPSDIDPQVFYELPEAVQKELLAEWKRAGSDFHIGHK

DNA polymerase kappa = molecular target: T4, DNA polymerase kappa (Homo sapiens, UniProt Q9UBT6); assay: Inhibition of human DNA polymerase kappa (19 to 526 residues)-mediated TLS past acrolein derived ring-opened reduced form of gamma-HOPdG lesions preincubated for 15 mins followed by DNA substrate addition measured after 30 mins in presence of dCTP and dGTP by radioactive gel-based primer extension assay
T4 sequence (Q9UBT6 whole entry): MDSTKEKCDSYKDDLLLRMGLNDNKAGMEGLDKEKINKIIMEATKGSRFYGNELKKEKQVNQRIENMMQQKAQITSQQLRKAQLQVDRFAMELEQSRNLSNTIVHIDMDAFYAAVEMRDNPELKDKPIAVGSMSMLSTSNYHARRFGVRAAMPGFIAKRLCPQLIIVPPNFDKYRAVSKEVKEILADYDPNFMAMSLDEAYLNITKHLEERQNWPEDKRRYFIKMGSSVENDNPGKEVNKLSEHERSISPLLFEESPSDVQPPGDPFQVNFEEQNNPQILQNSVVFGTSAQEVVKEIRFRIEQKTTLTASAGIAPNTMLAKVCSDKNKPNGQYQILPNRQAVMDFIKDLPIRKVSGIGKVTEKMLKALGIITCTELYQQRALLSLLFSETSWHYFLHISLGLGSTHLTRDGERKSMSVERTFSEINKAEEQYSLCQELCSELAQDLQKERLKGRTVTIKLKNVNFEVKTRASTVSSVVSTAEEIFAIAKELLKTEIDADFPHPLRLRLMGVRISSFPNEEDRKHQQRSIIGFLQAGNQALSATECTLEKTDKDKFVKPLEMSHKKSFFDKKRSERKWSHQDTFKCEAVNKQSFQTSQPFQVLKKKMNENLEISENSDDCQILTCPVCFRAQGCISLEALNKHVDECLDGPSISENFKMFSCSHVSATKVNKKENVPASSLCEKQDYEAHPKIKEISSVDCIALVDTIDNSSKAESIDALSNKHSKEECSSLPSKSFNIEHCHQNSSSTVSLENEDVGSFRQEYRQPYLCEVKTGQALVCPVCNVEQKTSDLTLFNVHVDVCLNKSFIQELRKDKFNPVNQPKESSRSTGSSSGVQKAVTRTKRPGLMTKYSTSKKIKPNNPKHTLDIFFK

[5] = molecular target: T1, Ubiquitin carboxyl-terminal hydrolase 1/WD repeat-containing protein 48; assay: Inhibition of human USP1/UAF1 complex using Ub-Rho as substrate by qHTS assay; assay type: protein-complex assay

T1 sequence (O94782 whole entry): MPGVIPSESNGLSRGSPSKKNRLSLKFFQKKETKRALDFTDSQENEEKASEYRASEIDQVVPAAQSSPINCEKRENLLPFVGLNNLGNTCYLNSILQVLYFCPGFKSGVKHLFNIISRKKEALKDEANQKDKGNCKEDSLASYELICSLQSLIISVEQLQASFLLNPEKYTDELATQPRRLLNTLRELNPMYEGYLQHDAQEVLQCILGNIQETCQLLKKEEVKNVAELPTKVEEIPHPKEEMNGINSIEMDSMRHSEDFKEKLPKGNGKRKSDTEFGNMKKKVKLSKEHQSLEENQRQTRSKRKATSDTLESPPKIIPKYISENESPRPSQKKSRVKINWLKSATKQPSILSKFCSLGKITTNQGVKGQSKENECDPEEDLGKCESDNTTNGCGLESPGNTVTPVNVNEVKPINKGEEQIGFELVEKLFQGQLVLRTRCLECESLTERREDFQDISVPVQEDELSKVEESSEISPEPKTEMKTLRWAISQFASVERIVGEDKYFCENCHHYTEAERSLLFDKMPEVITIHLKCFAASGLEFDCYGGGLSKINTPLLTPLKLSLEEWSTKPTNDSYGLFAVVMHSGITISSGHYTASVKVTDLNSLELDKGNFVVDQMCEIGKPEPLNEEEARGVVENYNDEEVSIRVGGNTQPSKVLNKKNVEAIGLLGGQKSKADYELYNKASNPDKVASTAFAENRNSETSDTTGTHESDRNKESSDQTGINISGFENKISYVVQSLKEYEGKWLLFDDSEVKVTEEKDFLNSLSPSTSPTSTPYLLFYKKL
T1 sequence (Q8TAF3 whole entry): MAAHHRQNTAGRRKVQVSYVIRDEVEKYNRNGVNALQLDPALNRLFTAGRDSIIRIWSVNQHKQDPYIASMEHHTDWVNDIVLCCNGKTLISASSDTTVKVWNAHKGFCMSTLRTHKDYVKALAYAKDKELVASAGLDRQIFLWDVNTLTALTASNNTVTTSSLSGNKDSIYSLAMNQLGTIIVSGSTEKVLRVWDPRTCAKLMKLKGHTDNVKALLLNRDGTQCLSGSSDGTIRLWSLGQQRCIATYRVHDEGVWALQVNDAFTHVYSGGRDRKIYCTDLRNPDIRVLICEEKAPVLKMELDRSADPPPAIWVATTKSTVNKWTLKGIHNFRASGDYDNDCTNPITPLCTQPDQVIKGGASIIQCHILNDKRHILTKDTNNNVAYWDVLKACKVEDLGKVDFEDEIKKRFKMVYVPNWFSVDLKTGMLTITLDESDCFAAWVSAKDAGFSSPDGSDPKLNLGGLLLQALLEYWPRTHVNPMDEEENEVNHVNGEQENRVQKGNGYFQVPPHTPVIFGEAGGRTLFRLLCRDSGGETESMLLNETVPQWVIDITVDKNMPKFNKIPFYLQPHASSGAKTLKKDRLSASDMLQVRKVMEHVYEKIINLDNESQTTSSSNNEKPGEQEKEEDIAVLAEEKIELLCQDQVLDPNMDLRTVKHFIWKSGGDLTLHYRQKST
Ubiquitin carboxyl-terminal hydrolase 1/WD repeat-containing protein 48 (Homo sapiens, UniProt O94782), sequence (O94782 whole entry): as the sequence (O94782 whole entry) above
Ubiquitin carboxyl-terminal hydrolase 1/WD repeat-containing protein 48 (Homo sapiens, UniProt O94782), sequence (Q8TAF3 whole entry, further chain): as the sequence (Q8TAF3 whole entry) above

Nc1nc(COC(=O)c2ccc([N+](=O)[O-])cc2)nc(Nc2ccccc2)n1
GI50 [1]: 10 µM

Cc1ccc(Nc2nc(N)nc(COC(=O)c3ccc([N+](=O)[O-])cc3)n2)cc1
GI50 [1]: 10 µM

O=C1c2ccccc2C(=O)C2OC(c3ccc(F)cc3)=NC12 (centres undefined)
IC50 [2]: 880 nM

Cc1cnc(-c2ccccc2C(C)C)nc1NCc1ccc(-n2ccnn2)cc1
GI50 [3]: 59 nM | inhibition [4]: 31%

O=C(O)C1=CC(=C(c2ccc(O)c(C(=O)O)c2)c2ccc(O)c(C(=O)O)c2)C=CC1=O [AURINTRICARBOXYLIC ACID]
IC50 (DNA polymerase eta): 75 nM | IC50 (DNA polymerase iota): 75 nM

CCOc1nc2cccc(C(=O)OC(C)OC(=O)OC3CCCCC3)c2n1Cc1ccc(-c2ccccc2-c2nnn[nH]2)cc1 (centres undefined) [CANDESARTAN CILEXETIL]
IC50 (DNA polymerase kappa): 5.6 µM

O=c1oc2c(O)c(O)cc3c(=O)oc4c(O)c(O)cc1c4c23 [ELLAGIC ACID]
IC50 (DNA polymerase eta): 62 nM | IC50 (DNA polymerase iota): 62 nM

CC(C)(Sc1ccc(CCN(CCCCC2CCCCC2)C(=O)NC2CCCCC2)cc1)C(=O)O [GW7647]
IC50 [5]: 5 µM

O=c1[nH]c2ccccc2n1C1CCN(CCCC(c2ccc(F)cc2)c2ccc(F)cc2)CC1 [PIMOZIDE]
IC50 [5]: 2 µM

CC(=O)c1c(O)c(C)c(O)c(Cc2c(O)c3c(c(C(=O)/C=C/c4ccccc4)c2O)OC(C)(C)C=C3)c1O [ROTTLERIN]
IC50 [5]: 8 µM

CN1CCN(CCCN2c3ccccc3Sc3ccc(C(F)(F)F)cc32)CC1 [TRIFLUOPERAZINE]
IC50 [5]: 8 µM
